# Tests used:
# Type in all cases: cell-based, Nicotiana tabacum
# tobacco protoplasts [1] = assay: Transient expression transport assay for phytepsin, read by protein gel blot of medium and cells; conditions: increasing BFA concentration (FIG. 22)
# Source text: Transient expression experiment showing the influence of BFA (indicated above each lane in μg/ml final concentration) on secretion to the medium (M), intracellular retention (C) and the partitioning between processed (closed arrows) and un-processed (open arrows) forms of phyteposin. Note that BFA inhibits both secretion and intracellular processing of phytepsin.
# (§1) Tobacco leaf protoplasts were electroporated as described (Denecke and Vitale, 1995), and plasmid concentrations used are given in the figure legends. Harvesting of cells and culture medium as well as the enzymatic assays were done as described previously (Denecke and Vitale, 1995; Crofts et al., 1999; Leborgne-Castel et al., 1999). Equal volumes of cells and medium were loaded on protein gel blots or analysed via enzymatic assays to determine the fraction of the marker proteins inside and outside of the cells and to calculate the secretion index (Denecke et al., 1990). Membrane recruitment was assessed by an osmotic shock procedure described previously (Denecke et al., 1990; Denecke et al., 1992).
# Samples were loaded after twofold dilution with 2×SDS-PAGE loading buffer (200 mM Tris-Cl, pH 8.8, 5 mM EDTA, 1 M sucrose, and 0.1% bromophenol blue). Proteins in SDS-polyacrylamide gels were transferred onto a nitrocellulose membrane and then blocked with PBS, 0.5% Tween 20, and 5% milk powder for 1 hr. […]
# [2] = tested on: stably transformed tobacco cells; assay: Transport time course in protoplasts from stably transformed tobacco cells incubated with BFA; conditions: stable transformants, 30 μg/ml BFA, 240 minute period (FIG. 18)
# Method: The experiment shown in FIG. 17 was conducted using a standard transient expression assay with a 24-hour incubation period. This is a long time-period and it is possible that prolonged inhibition of the recycling of essential COPII vesicle budding components leads eventually to an inhibition of anterograde transport. […] To test this, we have carried out a transport experiment in which stably transformed tobacco cells were incubated for different time-periods in the presence of BFA. Under these circumstances, protoplasts contain a steady state level of amy or amy-HDEL from the very beginning of the experiment. This steady state level is very high for amy-HDEL, thus secretion of the cargo into the medium should be detected with high sensitivity if BFA first inhibits […] retrograde transport while COPII anterograde transport is still efficient. […] It was not possible to detect a transient induction of amy-HDEL secretion prior to the inhibition of amy secretion.
# tobacco protoplasts [3] = assay: Transient expression transport assay: secretion index and total activity of α-amylase cargo molecules
# Source text: as §1
# Protoplasts were extracted in α-amylase extraction buffer (Crofts et al., 1999) via sonication for 5 seconds. In all cases, extracts were cleared by 10 min centrifugation at 2500 g at 4° C. and the supernatant was recovered. α-amylase activity was determined as described (Crofts et al., 1999).
# It is established that the molecular target of BFA is the guanosine nucleotide exchange factor for ARF1p, resulting in a stabilisation of an abortive complex with the GDP-bound form of ARF1p at the Golgi membrane. To test if inhibition of retrograde and anterograde transport can be dissected, we decided to utilise the secreted cargo molecule α-amylase (amy) and its derivative carrying an ER retention signal (amy-HDEL), which permits a quantitative analysis of transport rates in tobacco leaf protoplasts (FIGS. 1-6). We have shown before that the secretion index (SI), the ratio between extra- and intracellular activities, provides a simple way to compare relative transport rates at a defined time-point. In addition, amy and amy-HDEL have identical specific enzyme activity and stability throughout the secretory pathway. While both molecules are expected to have identical ER export properties (FIG. 16, route 1), only amy-HDEL can undergo retrograde transport from the Golgi (FIG. 16, route 2). If saturation of the HDEL receptor occurs, amy-HDEL is expected to reach the cell surface in the same manner as amy (FIG. 16, routes 3 and 7). We now tested the influence of different concentrations of BFA on the transport of either cargo molecules via transient gene expression in tobacco protoplasts. […] This effect is less obvious for amy-HDEL.
# [4] = 24-hour incubation, increasing BFA concentration (FIG. 17)
smiles,measurement,setting,value
"C[C@H]1CCC/C=C/[C@@H]2C[C@H](O)C[C@H]2[C@H](O)/C=C/C(=O)O1 [BFA, Brefeldin A]",intracellular processing of the phytepsin precursor,tobacco protoplasts [1],inhibits processing of the phytepsin precursor
same,secretion of phytepsin precursor to the medium,tobacco protoplasts [1],secretion was inhibited at the lowest concentration of BFA used
same,"secretion of amy, secretion index over time",[2],only inhibits the secretion of amy
same,"secretion of amy-HDEL, secretion index over time",[2],slightly induced after prolonged incubation (80 minutes and more)
same,total activity (medium+cells) of amy-HDEL,"tobacco protoplasts [3]; 24-hour incubation, BFA present (FIG. 17 lower panel)",slightly increased total activity for amy-HDEL
same,total amount of α-amylase (amy) produced (medium+cells),"tobacco protoplasts [3]; 24-hour incubation, BFA treatment (FIG. 17)",reduction in the total amount of α-amylase
same,"secretion of amy-HDEL, secretion index",tobacco protoplasts [3]; [4],hardly influenced by the drug
same,"secretion of α-amylase (amy), secretion index",tobacco protoplasts [3]; [4],concentration-dependent inhibition of α-amylase secretion
same,secretion of amy-spo to the medium,tobacco protoplasts [3]; increasing BFA concentration (FIG. 25B),does not induce secretion of the cargo molecule

# — patent publication US20050019855A1, “Methods to increase the productivity of meterologous gene expression” (priority 2001, published 2005)
